Test results from ChEMBL document CHEMBL1146871, “Hydrazides of clozapine: a new class of D1 dopamine receptor subtype selective antagonists” (Bioorg Med Chem Lett, 2006).

How the values were obtained:
D(1A) dopamine receptor = D(1A) dopamine receptor (Homo sapiens, UniProt P21728); experiment: Displacement of [3H]SCH 23390 from human dopamine D1 receptor expressed in CHO cells; format: cell-based
D(2) dopamine receptor = D(2) dopamine receptor (Homo sapiens, UniProt P14416); experiment: Displacement of [3H]methylspiperone from human dopamine D2 receptor expressed in CHO cells; format: cell-based
Chain of D(2) dopamine receptor (P14416 whole entry): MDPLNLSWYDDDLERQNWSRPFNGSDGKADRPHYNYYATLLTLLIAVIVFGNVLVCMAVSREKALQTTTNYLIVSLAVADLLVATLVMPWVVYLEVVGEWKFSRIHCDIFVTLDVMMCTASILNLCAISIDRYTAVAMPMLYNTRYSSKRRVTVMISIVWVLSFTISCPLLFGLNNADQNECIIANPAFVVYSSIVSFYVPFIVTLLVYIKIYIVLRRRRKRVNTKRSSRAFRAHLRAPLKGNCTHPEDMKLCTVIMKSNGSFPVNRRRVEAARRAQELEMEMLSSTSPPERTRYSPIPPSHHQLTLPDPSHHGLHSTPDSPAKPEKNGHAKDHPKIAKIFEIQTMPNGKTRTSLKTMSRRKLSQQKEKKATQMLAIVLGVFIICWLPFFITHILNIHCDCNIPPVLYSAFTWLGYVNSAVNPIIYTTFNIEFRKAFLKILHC

Chain of D(1A) dopamine receptor (P21728 whole entry): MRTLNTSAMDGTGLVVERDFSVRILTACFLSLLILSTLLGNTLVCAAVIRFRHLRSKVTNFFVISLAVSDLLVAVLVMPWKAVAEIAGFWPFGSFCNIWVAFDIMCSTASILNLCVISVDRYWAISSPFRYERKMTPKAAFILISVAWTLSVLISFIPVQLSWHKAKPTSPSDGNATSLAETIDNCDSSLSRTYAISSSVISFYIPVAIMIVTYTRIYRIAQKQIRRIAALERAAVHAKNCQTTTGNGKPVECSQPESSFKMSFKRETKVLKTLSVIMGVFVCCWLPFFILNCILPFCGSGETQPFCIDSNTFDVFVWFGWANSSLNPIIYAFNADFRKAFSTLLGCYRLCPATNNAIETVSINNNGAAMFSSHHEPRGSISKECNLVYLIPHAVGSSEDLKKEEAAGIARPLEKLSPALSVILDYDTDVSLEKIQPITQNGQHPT

Row | Compound | Ki (D(1A) dopamine receptor) [nM] | Ki (D(2) dopamine receptor) [nM]
1 | CC(=O)NN1c2ccc(Cl)cc2N=C(N2CCN(C)CC2)c2ccccc21 | 494 | 
2 | CN1CCN(C2=Nc3cc(Cl)ccc3N(NC(=O)c3ccco3)c3ccccc32)CC1 | 15 | 837
3 | CN1CCN(C2=Nc3cc(Cl)ccc3N(NC(=O)CCC3CCCC3)c3ccccc32)CC1 | 111 | 1950
4 | CN1CCN(C2=Nc3cc(Cl)ccc3N(NC(=O)c3sccc3-c3ccccc3)c3ccccc32)CC1 | 39 | 78
5 | CN1CCN(C2=Nc3cc(Cl)ccc3N(NC(=O)c3ccccc3Oc3ccccc3)c3ccccc32)CC1 | 51 | 431
6 | CN1CCN(C2=Nc3cc(Cl)ccc3N(NC(=O)c3cc(Cl)cc(Cl)c3)c3ccccc32)CC1 | 24 | 608
7 | CN1CCN(C2=Nc3cc(Cl)ccc3N(NC(=O)C3CCC3)c3ccccc32)CC1 | 150 | 
8 | CN1CCN(C2=Nc3cc(Cl)ccc3N(NC(=O)c3ccc(C(F)(F)F)cc3)c3ccccc32)CC1 | 68 | 
9 | CN1CCN(C2=Nc3cc(Cl)ccc3N(NC(=O)c3ccccc3-n3ccnc3)c3ccccc32)CC1 | 88 | 3000
10 | CN1CCN(C2=Nc3cc(Cl)ccc3N(N)c3ccccc32)CC1 | 280 | 647
11 | CN1CCN(C2=Nc3cc(Cl)ccc3N(NC(=O)c3cnc4ccccc4c3)c3ccccc32)CC1 | 28 | 
12 | CN1CCN(C2=Nc3cc(Cl)ccc3N(NC(=O)c3ccccc3NC3CCCCC3)c3ccccc32)CC1 | 62 | 3820
13 | CN1CCN(C2=Nc3cc(Cl)ccc3N(NC(=O)c3ccccc3N3CCN(C)CC3)c3ccccc32)CC1 | 237 | 3770
14 | CN1CCN(C2=Nc3cc(Cl)ccc3N(NC(=O)CCc3ccccc3)c3ccccc32)CC1 | 79 | 621
15 | CN1CCN(C2=Nc3cc(Cl)ccc3N(NC(=O)c3nccc4ccccc34)c3ccccc32)CC1 | 23 | 484
16 | CN1CCN(C2=Nc3cc(Cl)ccc3N(NC(=O)C(F)(F)F)c3ccccc32)CC1 | 86 | 1900

Row | Compound | Ki (D(1A) dopamine receptor) [nM] | Ki (D(2) dopamine receptor) [nM]
17 | CN1CCN(C2=Nc3cc(Cl)ccc3N(NC(=O)c3cccs3)c3ccccc32)CC1 | 14 | 1470
18 | CN1CCN(C2=Nc3cc(Cl)ccc3N(NC(=O)C3CCCCC3)c3ccccc32)CC1 | 42 | 1780
19 | CN1CCN(C2=Nc3cc(Cl)ccc3N(NC(=O)c3ccccc3)c3ccccc32)CC1 | 157 | 1150
20 | CN1CCN(C2=Nc3cc(Cl)ccc3N(NC(=O)C(C)(C)C)c3ccccc32)CC1 | 98 | 
21 | CN1CCN(C2=Nc3cc(Cl)ccc3N(NC(=O)/C=C/c3ccccc3)c3ccccc32)CC1 | 103 | 1600
22 | CCOc1ccc2ccccc2c1C(=O)NN1c2ccc(Cl)cc2N=C(N2CCN(C)CC2)c2ccccc21 | 65 | 274
23 | CCOc1c(C(=O)NN2c3ccc(Cl)cc3N=C(N3CCN(C)CC3)c3ccccc32)sc2ccccc12 | 28 | 196
24 | CCCC(CCC)C(=O)NN1c2ccc(Cl)cc2N=C(N2CCN(C)CC2)c2ccccc21 | 25.6 | 1850
25 | CN1CCN(C2=Nc3cc(Cl)ccc3N(NC(=O)c3cccc(F)c3)c3ccccc32)CC1 | 47 | 921
26 | CN1CCN(C2=Nc3cc(Cl)ccc3N(NC(=O)c3ccc(Cl)cc3)c3ccccc32)CC1 | 35 | 9250
27 | COc1ccc(C(=O)NN2c3ccc(Cl)cc3N=C(N3CCN(C)CC3)c3ccccc32)cc1 | 47 | 3000
28 | CN1CCN(C2=Nc3cc(Cl)ccc3N(NC(=O)c3ccon3)c3ccccc32)CC1 | 22 | 460
29 | CN1CCN(C2=Nc3cc(Cl)ccc3N(NC(=O)c3cnn(-c4ccccc4)c3C(F)(F)F)c3ccccc32)CC1 | 30 | 2080
30 | COc1ccc(CCC(=O)NN2c3ccc(Cl)cc3N=C(N3CCN(C)CC3)c3ccccc32)cc1Cl | 56 | 582
31 | CCCC(=O)NN1c2ccc(Cl)cc2N=C(N2CCN(C)CC2)c2ccccc21 | 154 | 400

The remaining compounds from weak to strong by Ki (D(1A) dopamine receptor), led by results:

Row | Ki (D(1A) dopamine receptor) [nM] | Ki (D(2) dopamine receptor) [nM] | Compound
32 | 14 | 2390 | CN1CCN(C2=Nc3cc(Cl)ccc3N(NC(=O)c3ccc(Br)cc3)c3ccccc32)CC1
33 | 13 | 1130 | COc1cccc(C(=O)NN2c3ccc(Cl)cc3N=C(N3CCN(C)CC3)c3ccccc32)c1
34 | 12 | 6390 | CN1CCN(C2=Nc3cc(Cl)ccc3N(NC(=O)c3ccc(Cl)c(Cl)c3)c3ccccc32)CC1
35 | 12 | 374 | CN1CCN(C2=Nc3cc(Cl)ccc3N(NC(=O)c3ccccc3F)c3ccccc32)CC1
36 | 11 | 630 | CN1CCN(C2=Nc3cc(Cl)ccc3N(NC(=O)c3cccnc3Cl)c3ccccc32)CC1
37 | 10 | 931 | CN1CCN(C2=Nc3cc(Cl)ccc3N(NC(=O)c3ccc4ccccc4n3)c3ccccc32)CC1
38 | 10 | 180 | CCOc1csc(C(=O)NN2c3ccc(Cl)cc3N=C(N3CCN(C)CC3)c3ccccc32)c1
39 | 9 | 3000 | CN1CCN(C2=Nc3cc(Cl)ccc3N(NC(=O)c3ccsc3)c3ccccc32)CC1
40 | 7.8 | 215 | CN1CCN(C2=Nc3cc(Cl)ccc3N(NC(=O)c3ccccc3N3CCCCC3)c3ccccc32)CC1
41 | 7.7 | 1520 | Cc1ccc(C(=O)NN2c3ccc(Cl)cc3N=C(N3CCN(C)CC3)c3ccccc32)cc1
42 | 7.4 | 1310 | CN1CCN(C2=Nc3cc(Cl)ccc3N(NC(=O)c3ccc4ccccc4c3)c3ccccc32)CC1
43 | 7 | 92 | CN1CCN(C2=Nc3cc(Cl)ccc3N(NC(=O)c3c(N)cccc3C(F)(F)F)c3ccccc32)CC1
44 | 4 | 181 | CN1CCN(C2=Nc3cc(Cl)ccc3N(NC(=O)c3cccc(Cl)c3)c3ccccc32)CC1
45 | 4 | 390 | CN1CCN(C2=Nc3cc(Cl)ccc3N(NC(=O)c3c(Cl)cc(Cl)cc3Cl)c3ccccc32)CC1
46 | 3.6 | 350 | CN1CCN(C2=Nc3cc(Cl)ccc3N(NC(=O)c3cccc(I)c3)c3ccccc32)CC1
47 | 3.4 | 240 | CN1CCN(C2=Nc3cc(Cl)ccc3N(NC(=O)c3c(Cl)cccc3Cl)c3ccccc32)CC1
48 | 3 | 517 | Cc1cccc(C(=O)NN2c3ccc(Cl)cc3N=C(N3CCN(C)CC3)c3ccccc32)c1
